Test results: article PMC4750079, “Tackling amyloidogenesis in Alzheimer’s disease with A2V variants of Amyloid-β” (Scientific Reports, 2016)
Where a SMILES comes first, the peptide text is derived from it. [ ]: non-standard residue; d: D form.

Target: T1, Aβ1-42WT (Homo sapiens, UniProt P05067)
T1 construct: Aβ1-42WT oligomers were formed following incubation of Aβ1-42WT at a final concentration of 100 μM; made in house; host or cells: chemical synthesis (solid-phase Fmoc), no expression host
Assay: Polarized light and electron microscopy of Aβ1-42WT aggregates
Type: biochemical
Conditions: 20 days incubation, 37 °C, molar ratio 1:1 or 1:4
Experimental: Figure 3 Inhibition of aggregation of Aβ1-42WT by Aβ1-6A2VTAT(D). Polarized-light (A,B), electron microscopy (C,D) and atomic force microscopy (AFM) (E–H) studies showing the inhibitory effects of Aβ1-6A2VTAT(D) on amyloid formation, fibril production and oligomerization by Aβ1-42WT. In polarized-light and EM studies, both peptides were used at 0.125 mM, molar ratio = 1:1 or 1:4 respectively, with 20 days incubation. […] E,F: Representative Tapping mode of AFM images as determined by amplitude error data of Aβ1-42WT oligomers. Aβ1-42WT peptide 100 μM in phosphate buffer 50 mM, pH 7.4 was incubated at 4 °C for 24 h alone (E) (Z range: -10/ + 10 mV) or in presence of Aβ1-6A2VTAT(D) (F) (Z range: -10/ + 25 mV). The molar ratio of Aβ1-42WT to Aβ1-6A2VTAT(D) was 1:4. Scale bar: 1 μm, inset: 200 nm. (G,H): height plot profiles obtained along different lines traced on the topographic AFM images.
Aβ1-42WT, Aβ1-6A2VTAT(D) were dissolved in 10 mM NaOH and then diluted in an equal volume of 100 mM Tris-HCl, pH 7.0, to final concentrations (0.250 mM). […] The samples were incubated at 37 °C, and the tinctorial and ultrastructural properties of the peptide assemblies were determined at various intervals, ranging from 1 h to 20 days, as previously described. […]

T1 sequence (P05067 672-713 limits assumed): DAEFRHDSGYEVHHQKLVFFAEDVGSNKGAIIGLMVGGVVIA

CC(C)[C@@H](NC(=O)[C@H](N)CC(=O)O)C(=O)N[C@H](CCC(=O)O)C(=O)N[C@H](Cc1ccccc1)C(=O)N[C@H](CCCNC(=N)N)C(=O)N[C@H](Cc1c[nH]cn1)C(=O)NCC(=O)NCC(=O)NCC(=O)NCC(=O)NCC(=O)N[C@H](CCCNC(=N)N)C(=O)N[C@H](CCCCN)C(=O)N[C@H](CCCCN)C(=O)N[C@H](CCCNC(=N)N)C(=O)N[C@H](CCCNC(=N)N)C(=O)N[C@H](CCC(N)=O)C(=O)N[C@H](CCCNC(=N)N)C(=O)N[C@H](CCCNC(=N)N)C(=O)N[C@H](CCCNC(=N)N)C(=O)O [Aβ1-6A2VTAT(D)] (H-[dD][dV][dE][dF][dR][dH]GGGGG[dR][dK][dK][dR][dR][dQ][dR][dR][dR]-OH; N-terminus assumed)
amount of fibrils generated by Aβ1-42WT (electron microscopy): reduces the amount of fibrils generated by the full-length peptide
formation of amyloid structures by Aβ1-42WT (polarized light): hinders the formation of amyloid structures
